# According to PMC3537913 (Clinical cancer research : an official journal of the …, 2012):
# Counter-ions that a name gives are not always drawn.
# Legend:
# refractory solid tumors = settings: cited from earlier work
# [1] = Sorafenib first-dose pharmacokinetics in patients; assay type: in vivo, human; settings: for CL/F (apparent oral clearance): first dose (day 1); for Ka: first dose; for Cmax / Tmax / half-life: human, plasma, po
# [2] = Sorafenib and sorafenib N-oxide steady-state plasma concentrations, course 1; assay type: in vivo, human; settings: for concentration at 7 day / concentration at 13 day / concentration at 21 day: human, plasma, oral
# [3] = system: circulating endothelial cells (CECs); experiment: Six-color flow cytometry of blood; assay type: in vivo, human; settings: day 21, p = 0.01
# [4] = single-agent sorafenib, mean; cited from earlier work
# [5] = pediatric phase I single agent study, cited from earlier work
# [6] = human, in vivo, po
# [7] = once daily by mouth, in the combination
# clinical = settings: human, in vivo, po, 50 mg/m2
# [8] = in vivo, cited from earlier work
# [9] = sorafenib 90 mg/m^2 oral, n 11, median (range)
# [10] = sorafenib 110 mg/m^2 oral, n 4, median (range)
# [11] = sorafenib 90 mg/m^2 twice daily, n 13, median (range)
# [12] = sorafenib 110 mg/m^2 twice daily, n 4, median (range)
compound,measurement,setting,value
"bevacizumab: VEGF-specific recombinant, humanized monoclonal antibody",dose-limiting toxicities,refractory solid tumors; in vivo,no dose-limiting toxicities (DLTs) were observed
same,objective responses,"refractory solid tumors; pediatric phase I, single agent",No objective responses were observed
"CNC(=O)c1cc(Oc2ccc(NC(=O)Nc3ccc(Cl)c(C(F)(F)F)c3)cc2)ccn1 [sorafenib, Sorafenib tosylate]",CL/F (apparent oral clearance),[1]; [9],44 mL/min/m^2
same,CL/F (apparent oral clearance),[1]; [10],39 mL/min/m^2
same,Ka,[1]; [9],0.10 (0.038 – 0.72) h^−1
same,Ka,[1]; [10],0.093 (0.080 – 0.15) h^−1
same,Cmax,[1]; 90 mg/m2,1100 ng/mL
same,Tmax,[1]; 90 mg/m2,8.7 h
same,half-life,[1]; 90 mg/m2,5.5 h
same,Cmax,[1]; 110 mg/m2,1600 ng/mL
same,Tmax,[1]; 110 mg/m2,11 h
same,half-life,[1]; 110 mg/m2,10 h
same,concentration at 7 day,[2]; 90 mg/m^2 twice daily,3500 ng/mL
same,concentration at 13 day,[2]; 90 mg/m^2 twice daily,2500 ng/mL
same,concentration at 21 day,[2]; 90 mg/m^2 twice daily,4800 ng/mL
same,concentration at 7 day,[2]; 110 mg/m^2 twice daily,3000 ng/mL
same,concentration at 13 day,[2]; 110 mg/m^2 twice daily,2100 ng/mL
same,concentration at 21 day,[2]; 110 mg/m^2 twice daily,1600 ng/mL
same,correlation of sorafenib steady-state concentrations with CECs,[3],inversely correlated
same,"metabolic conversion to sorafenib N-oxide, adult patients",[4],< 10%
same,"metabolic conversion to sorafenib N-oxide, children with AML",[4],33%
same,maximum tolerated dose (MTD),[5]; twice daily,200 mg/m^2
same,Grade 3 DLTs,[5],"elevated lipase, hyponatremia, hand-foot syndrome (HFS), rash, hypertension, and elevated ALT"
same,objective responses,[5],No objective responses were observed
CNC(=O)c1cc(Oc2ccc(NC(=O)Nc3ccc(Cl)c(C(F)(F)F)c3)cc2)cc[n+]1[O-] [sorafenib N-oxide],Sorafenib N-oxide Ctrough Day 7,[2]; [11],0.50 (0.11 – 4.5) mg/L
same,Sorafenib N-oxide Ctrough Day 13,[2]; [11],0.54 (0.17 – 3.4) mg/L
same,Sorafenib N-oxide Ctrough Day 7,[2]; [12],0.57 (0.37 – 1.5) mg/L
same,Sorafenib N-oxide Ctrough Day 13,[2]; [12],0.37 (0.33 – 0.92) mg/L
same,Sorafenib N-oxide Ctrough Day 21,[2]; [12],0.40 (0.20 – 0.78) mg/L
"O=P1(N(CCCl)CCCl)NCCCO1 (stereo not shown) [cyclophosphamide, Cyclophosphamide]",cyclophosphamide absorption rate constant,[6],0.17 h⁻¹
same,cyclophosphamide apparent volume of distribution,[6]; 50 mg/m2,2.28 L/m^2
same,"recommended phase II dose, cyclophosphamide",[7],50 mg/m^2
same,published mean AUC at 600 mg/m^2 relative to median AUC of this study,"12-fold higher oral dosage, ref 34 versus this study",~ 11 times
same,BSA normalized apparent oral clearance in adults,"assuming average adult body surface area of 1.73 m^2, from ref 33",3.57 L/h/m^2
same,AUC(0-inf),clinical,62.5 µM·h
same,clearance after intravenous administration in children,[8]; iv,2.9-4.23 L/h/m^2
same,mean apparent oral clearance in adults,[8]; po,6.18 L/h
